Converted amounts (≈) assume the structure as drawn.
Key:
Assay type in all cases: functional
[1] = tested on: Staphylococcus saprophyticus; assay: Antibacterial activity against Staphylococcus saprophyticus ATCC 49907 assessed as inhibition of bacterial growth
Staphylococcus aureus [2] = assay: Antibacterial activity against methicilin-resistant Staphylococcus aureus 42412 assessed as inhibition of bacterial growth
Staphylococcus aureus [3] = assay: Antibacterial activity against methicilin-resistant Staphylococcus aureus 1003 assessed as inhibition of bacterial growth
Enterococcus faecium [4] = assay: Antibacterial activity against Vancomycin-resistant Enterococcus […] ATCC 700802 assessed as inhibition of bacterial growth
Staphylococcus aureus [5] = assay: Antibacterial activity against Staphylococcus aureus 29213 assessed as inhibition of bacterial growth
Enterococcus faecium [6] = assay: Antibacterial activity against Vancomycin-resistant Enterococcus […] ATCC 29212 assessed as inhibition of bacterial growth; conditions: Enterococcus faecalis
[7] = tested on: Staphylococcus epidermidis; assay: Antibacterial activity against Staphylococcus epidermidis 12228 assessed as inhibition of bacterial growth
Staphylococcus aureus [8] = assay: Antibacterial activity against methicilin-resistant Staphylococcus aureus 21455 assessed as inhibition of bacterial growth
[9] = tested on: Staphylococcus saprophyticus; assay: Antibacterial activity against Staphylococcus saprophyticus ATCC BAA 750 assessed as inhibition of bacterial growth
Staphylococcus aureus [10] = assay: Antibacterial activity against Staphylococcus aureus 4299 assessed as inhibition of bacterial growth
[11] = tested on: Staphylococcus saprophyticus; assay: Antibacterial activity against Staphylococcus saprophyticus ATCC 15305 assessed as inhibition of bacterial growth
[12] = tested on: Staphylococcus saprophyticus; assay: Antibacterial activity against Staphylococcus saprophyticus ATCC 49453 assessed as inhibition of bacterial growth
Bacillus cereus = assay: Antibacterial activity against Bacillus cereus ATCC 11788 assessed as inhibition of bacterial growth
Enterococcus faecium [13] = assay: Antibacterial activity against Vancomycin-resistant Enterococcus faecium 1014 assessed as inhibition of bacterial growth
Bacillus subtilis = assay: Antibacterial activity against Bacillus subtilis ATCC 6633 assessed as inhibition of bacterial growth
Staphylococcus aureus [14] = assay: Antibacterial activity against methicilin-resistant Staphylococcus aureus ATCC 700699 assessed as inhibition of bacterial growth

Row | SMILES | MIC [1] [µg/mL] | MIC (Staphylococcus aureus [2]) [µg/mL] | MIC (Staphylococcus aureus [3]) [µg/mL] | MIC (Enterococcus faecium [4]) [µg/mL] | MIC (Staphylococcus aureus [5]) [µg/mL] | MIC (Enterococcus faecium [6]) [µg/mL] | MIC [7] [µg/mL] | MIC (Staphylococcus aureus [8]) [µg/mL] | MIC [9] [µg/mL] | MIC (Staphylococcus aureus [10]) [µg/mL] | MIC [11] [µg/mL] | MIC [12] [µg/mL] | MIC (Bacillus cereus) [µg/mL] | MIC (Enterococcus faecium [13]) [µg/mL] | MIC (Bacillus subtilis) [µg/mL] | MIC (Staphylococcus aureus [14]) [µg/mL]
1 | CCC[C@@H]1NC(=O)[C@H](CCCNC(=N)N)NC(=O)[C@H](NC(=O)[C@H](CO)NC(=O)[C@@H](NC(=O)[C@H](NC(=O)[C@@H](CCC(N)=O)NC(=O)[C@H](CO)NC(=O)[C@@H](NC(=O)[C@@H](Cc2ccccc2)NC)[C@@H](C)CC)[C@@H](C)CC)[C@@H](C)CC)[C@H](C)OC(=O)[C@H]([C@@H](C)CC)NC1=O | 0.063 (≈ 0.0495 µM) | 0.063 (≈ 0.0495 µM) | 1 (≈ 0.786 µM) | 1 (≈ 0.786 µM) | 0.5 (≈ 0.393 µM) | 2 (≈ 1.57 µM) | 0.063 (≈ 0.0495 µM) | 0.25 (≈ 0.196 µM) | 0.063 (≈ 0.0495 µM) | 0.25 (≈ 0.196 µM) | 0.063 (≈ 0.0495 µM) | 0.063 (≈ 0.0495 µM) | 0.5 (≈ 0.393 µM) | 2 (≈ 1.57 µM) | 0.063 (≈ 0.0495 µM) | 0.5 (≈ 0.393 µM)
2 | CC[C@H](C)[C@H](NC(=O)[C@@H](Cc1ccccc1)NC)C(=O)N[C@@H](CCCNC(=N)N)C(=O)N[C@H](CCC(N)=O)C(=O)N[C@@H](C(=O)N[C@H](C(=O)N[C@@H](CO)C(=O)N[C@H]1C(=O)N[C@@H](C)C(=O)N[C@@H](C2CCCCC2)C(=O)N[C@@H]([C@@H](C)CC)C(=O)O[C@H]1C)[C@@H](C)CC)[C@@H](C)CC | 0.063 (≈ 0.0486 µM) | 0.063 (≈ 0.0486 µM) | 0.063 (≈ 0.0486 µM) | 0.063 (≈ 0.0486 µM) | 0.063 (≈ 0.0486 µM) | 0.125 (≈ 0.0964 µM) | 0.063 (≈ 0.0486 µM) | 0.125 (≈ 0.0964 µM) | 0.063 (≈ 0.0486 µM) | 0.063 (≈ 0.0486 µM) | < 0.063 | < 0.063 | 0.063 (≈ 0.0486 µM) | 0.063 (≈ 0.0486 µM) | 0.063 (≈ 0.0486 µM) | 0.063 (≈ 0.0486 µM)
3 | CCC[C@@H]1NC(=O)[C@H](CCCNC(=N)N)NC(=O)[C@H](NC(=O)[C@H](CO)NC(=O)[C@@H](NC(=O)[C@H](NC(=O)[C@@H](CCC(N)=O)NC(=O)[C@H](CCCNC(=N)N)NC(=O)[C@@H](NC(=O)[C@@H](Cc2ccccc2)NC)[C@@H](C)CC)[C@@H](C)CC)[C@@H](C)CC)[C@H](C)OC(=O)[C@H]([C@@H](C)CC)NC1=O | 0.063 (≈ 0.047 µM) | 0.125 (≈ 0.0932 µM) | 1 (≈ 0.745 µM) | 2 (≈ 1.49 µM) | 0.5 (≈ 0.373 µM) | 2 (≈ 1.49 µM) | 0.063 (≈ 0.047 µM) | 0.5 (≈ 0.373 µM) | 0.063 (≈ 0.047 µM) | 0.25 (≈ 0.186 µM) | 0.125 (≈ 0.0932 µM) | 0.063 (≈ 0.047 µM) | 1 (≈ 0.745 µM) | 2 (≈ 1.49 µM) | 0.063 (≈ 0.047 µM) | 0.25 (≈ 0.186 µM)
4 | CCC[C@@H]1NC(=O)[C@H](CCCNC(=N)N)NC(=O)[C@H](NC(=O)[C@H](CO)NC(=O)[C@@H](NC(=O)[C@H](NC(=O)[C@@H](CCCNC(=N)N)NC(=O)[C@H](CCCNC(=N)N)NC(=O)[C@@H](NC(=O)[C@@H](Cc2ccccc2)NC)[C@@H](C)CC)[C@@H](C)CC)[C@@H](C)CC)[C@H](C)OC(=O)[C@H]([C@@H](C)CC)NC1=O | 0.5 (≈ 0.365 µM) | 32 (≈ 23.4 µM) | > 32 | 32 (≈ 23.4 µM) | 16 (≈ 11.7 µM) | 32 (≈ 23.4 µM) | 2 (≈ 1.46 µM) | 16 (≈ 11.7 µM) | 0.5 (≈ 0.365 µM) | 16 (≈ 11.7 µM) | 0.25 (≈ 0.183 µM) | 0.25 (≈ 0.183 µM) | 2 (≈ 1.46 µM) | 8 (≈ 5.84 µM) | 16 (≈ 11.7 µM) | 32 (≈ 23.4 µM)
5 | CCCCCCCCCC(=O)N[C@@H](Cc1c[nH]c2ccccc12)C(=O)N[C@H](CC(N)=O)C(=O)N[C@@H](CC(=O)O)C(=O)N[C@@H]1C(=O)NCC(=O)N[C@@H](CCCN)C(=O)N[C@@H](CC(=O)O)C(=O)N[C@H](C)C(=O)N[C@@H](CC(=O)O)C(=O)NCC(=O)N[C@H](CO)C(=O)N[C@@H]([C@H](C)CC(=O)O)C(=O)N[C@@H](CC(=O)c2ccccc2N)C(=O)O[C@@H]1C | 0.125 (≈ 0.0771 µM) | 1 (≈ 0.617 µM) | 2 (≈ 1.23 µM) | 1 (≈ 0.617 µM) | 0.25 (≈ 0.154 µM) | 1 (≈ 0.617 µM) | 0.125 (≈ 0.0771 µM) | 0.5 (≈ 0.309 µM) | 0.125 (≈ 0.0771 µM) | 0.25 (≈ 0.154 µM) | 0.125 (≈ 0.0771 µM) | 0.125 (≈ 0.0771 µM) | 0.125 (≈ 0.0771 µM) | 2 (≈ 1.23 µM) | 0.125 (≈ 0.0771 µM) | 2 (≈ 1.23 µM)
6 | CC[C@H](C)[C@H](NC(=O)[C@@H](Cc1ccccc1)NC)C(=O)N[C@@H](CO)C(=O)N[C@H](CCC(N)=O)C(=O)N[C@@H](C(=O)N[C@H](C(=O)N[C@@H](CO)C(=O)N[C@H]1C(=O)N[C@@H](CCCNC(=N)N)C(=O)N[C@@H](C2CCCCC2)C(=O)N[C@@H]([C@@H](C)CC)C(=O)O[C@H]1C)[C@@H](C)CC)[C@@H](C)CC | 0.063 (≈ 0.048 µM) | 0.063 (≈ 0.048 µM) | 0.125 (≈ 0.0952 µM) | 0.5 (≈ 0.381 µM) | 0.063 (≈ 0.048 µM) | 1 (≈ 0.762 µM) | 0.063 (≈ 0.048 µM) | 0.5 (≈ 0.381 µM) | 0.063 (≈ 0.048 µM) | 0.063 (≈ 0.048 µM) | < 0.063 | 0.125 (≈ 0.0952 µM) | 0.25 (≈ 0.19 µM) | 0.25 (≈ 0.19 µM) | 0.063 (≈ 0.048 µM) | 0.5 (≈ 0.381 µM)
7 | CCC[C@@H]1NC(=O)[C@H](C)NC(=O)[C@H](NC(=O)[C@H](CO)NC(=O)[C@@H](NC(=O)[C@H](NC(=O)[C@@H](CCC(N)=O)NC(=O)[C@H](CO)NC(=O)[C@@H](NC(=O)[C@@H](Cc2ccccc2)NC)[C@@H](C)CC)[C@@H](C)CC)[C@@H](C)CC)[C@H](C)OC(=O)[C@H]([C@@H](C)CC)NC1=O | 0.063 (≈ 0.0531 µM) | 0.063 (≈ 0.0531 µM) | 0.25 (≈ 0.211 µM) | 1 (≈ 0.842 µM) | 0.125 (≈ 0.105 µM) | 1 (≈ 0.842 µM) | 0.125 (≈ 0.105 µM) | 0.125 (≈ 0.105 µM) | 0.063 (≈ 0.0531 µM) | 0.063 (≈ 0.0531 µM) | 0.063 (≈ 0.0531 µM) | 0.063 (≈ 0.0531 µM) | 0.063 (≈ 0.0531 µM) | 1 (≈ 0.842 µM) | 0.063 (≈ 0.0531 µM) | 0.5 (≈ 0.421 µM)
8 | CCC[C@@H]1NC(=O)[C@H](C)NC(=O)[C@H](NC(=O)[C@H](CO)NC(=O)[C@@H](NC(=O)[C@H](NC(=O)[C@@H](CCC(N)=O)NC(=O)[C@H](CCCNC(=N)N)NC(=O)[C@@H](NC(=O)[C@@H](Cc2ccccc2)NC)[C@@H](C)CC)[C@@H](C)CC)[C@@H](C)CC)[C@H](C)OC(=O)[C@H]([C@@H](C)CC)NC1=O | 0.063 (≈ 0.0501 µM) | 0.063 (≈ 0.0501 µM) | 0.125 (≈ 0.0995 µM) | 1 (≈ 0.796 µM) | 0.125 (≈ 0.0995 µM) | 2 (≈ 1.59 µM) | 0.063 (≈ 0.0501 µM) | 0.063 (≈ 0.0501 µM) | 0.063 (≈ 0.0501 µM) | 0.063 (≈ 0.0501 µM) | 0.063 (≈ 0.0501 µM) | 0.063 (≈ 0.0501 µM) | 0.063 (≈ 0.0501 µM) | 1 (≈ 0.796 µM) | 0.063 (≈ 0.0501 µM) | 0.25 (≈ 0.199 µM)
9 | COc1c(N2C[C@@H]3CCCN[C@@H]3C2)c(F)cc2c(=O)c(C(=O)O)cn(C3CC3)c12 [MOXIFLOXACIN] | 0.125 (≈ 0.311 µM) | 4 (≈ 9.96 µM) | 4 (≈ 9.96 µM) | 0.25 (≈ 0.623 µM) | 0.063 (≈ 0.157 µM) | 0.25 (≈ 0.623 µM) | 0.063 (≈ 0.157 µM) | 4 (≈ 9.96 µM) | 0.25 (≈ 0.623 µM) | 0.125 (≈ 0.311 µM) | 0.25 (≈ 0.623 µM) | 0.25 (≈ 0.623 µM) | 0.125 (≈ 0.311 µM) | 16 (≈ 39.9 µM) | 0.031 (≈ 0.0772 µM) | 4 (≈ 9.96 µM)

From ChEMBL document CHEMBL5634143, “Development of teixobactin analogues containing hydrophobic, non-proteogenic amino acids that are highly potent against multidrug-resistant bacteria and biofilms” (Eur J Med Chem, 2023)
